From ChEMBL document CHEMBL1201862, “PubChem BioAssay data set” (2004)
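Where inhibition never reached the appropriate level, the endpoint shown equals the highest concentration tested. Otherwise, values were interpolated linearly from a five-concentration, 48-hour dose response in 96-well plates. GI50 marks 50% less growth.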 Active and inactive are the calls of the source. Cut-off read from the data, not from the text of the source: active = GI50 up to about 1.1 µM and inactive = higher.

Tests used:
Assay in all cases: DTP human tumour cell line panel, 48 h
OVCAR-8 = test system: OVCAR-8
SK-MEL-28 = test system: SK-MEL-28
SW-620 = test system: SW-620
COLO 205 = test system: COLO 205
SK-MEL-2 = test system: SK-MEL-2
NCI-H23 = test system: NCI-H23
OVCAR-5 = test system: OVCAR-5
SF-268 = test system: SF-268
SK-OV-3 = test system: SK-OV-3
OVCAR-4 = test system: OVCAR-4
SNB-19 = test system: SNB-19
HCT-116 = test system: HCT-116
K562 = test system: K562
RXF 393 = test system: RXF 393
SF-295 = test system: SF-295
HL-60 = test system: HL-60
HCC 2998 = test system: HCC 2998

| SMILES | GI50 (OVCAR-8) | GI50 (SK-MEL-28) | GI50 (SW-620) | GI50 (COLO 205) | GI50 (SK-MEL-2) | GI50 (NCI-H23) | GI50 (OVCAR-5) | GI50 (SF-268) | GI50 (SK-OV-3) | GI50 (OVCAR-4) | GI50 (SNB-19) | GI50 (HCT-116) | GI50 (K562) | GI50 (RXF 393) | GI50 (SF-295) | GI50 (HL-60) | GI50 (HCC 2998) |
| --- | --- | --- | --- | --- | --- | --- | --- | --- | --- | --- | --- | --- | --- | --- | --- | --- | --- |
| O=c1c2cccnc2ncn1CCCN1CCCCC1 | > 100 µM (inactive) | > 100 µM (inactive) | > 100 µM (inactive) | > 100 µM (inactive) | > 100 µM (inactive) | > 100 µM (inactive) | > 100 µM (inactive) | > 100 µM (inactive) | > 100 µM (inactive) | > 100 µM (inactive) | > 100 µM (inactive) | > 100 µM (inactive) | > 100 µM (inactive) | > 100 µM (inactive) | > 100 µM (inactive) | – | – |
| COC(OC)c1cc2c(cc1C=O)OCO2 | > 100 µM (inactive) | > 100 µM (inactive) | > 100 µM (inactive) | – | > 100 µM (inactive) | > 100 µM (inactive) | > 100 µM (inactive) | > 100 µM (inactive) | 43.8 µM (inactive) | > 100 µM (inactive) | > 100 µM (inactive) | > 100 µM (inactive) | 64.9 µM (inactive) | > 100 µM (inactive) | – | 47.2 µM (inactive) | > 100 µM (inactive) |
| O=C1CCC2(c3ccc(Cl)cc3)Nc3ccccc3N12 (stereo not given) | > 100 µM (inactive) | > 100 µM (inactive) | > 100 µM (inactive) | > 100 µM (inactive) | > 100 µM (inactive) | 42.6 µM (inactive) | > 100 µM (inactive) | 83.9 µM (inactive) | – | 75 µM (inactive) | > 100 µM (inactive) | 57 µM (inactive) | 54.5 µM (inactive) | 48.3 µM (inactive) | > 100 µM (inactive) | 35.5 µM (inactive) | > 100 µM (inactive) |
| c1ccc(-c2ccnc3c2ccc2c(-c4ccccc4)ccnc23)cc1 | 1.48 µM (inactive) | 4.57 µM (inactive) | 3.72 µM (inactive) | 2.98 µM (inactive) | 3.37 µM (inactive) | 1.85 µM (inactive) | 1.04 µM (active) | 3.12 µM (inactive) | 2.65 µM (inactive) | 2.28 µM (inactive) | 1.19 µM (inactive) | 0.555 µM (active) | 0.621 µM (active) | 1.83 µM (inactive) | – | 0.809 µM (active) | – |
| Cc1ccc(C2CC(c3ccc([N+](=O)[O-])cc3)=Nc3ccccc3S2)cc1 (stereo not given) | 22.5 µM (inactive) | 29 µM (inactive) | 20 µM (inactive) | 41.8 µM (inactive) | 30.3 µM (inactive) | 19.5 µM (inactive) | 44.5 µM (inactive) | 24.4 µM (inactive) | 89.9 µM (inactive) | 23.7 µM (inactive) | 23 µM (inactive) | – | 13.4 µM (inactive) | 12.1 µM (inactive) | 27.4 µM (inactive) | 19.8 µM (inactive) | 20.3 µM (inactive) |
| CC(=O)N(CCN)CCN | > 10 µM (inactive) | > 10 µM (inactive) | > 10 µM (inactive) | > 10 µM (inactive) | > 100 µM (inactive) | > 10 µM (inactive) | – | > 100 µM (inactive) | > 100 µM (inactive) | > 10 µM (inactive) | > 10 µM (inactive) | > 10 µM (inactive) | > 10 µM (inactive) | > 10 µM (inactive) | > 10 µM (inactive) | > 10 µM (inactive) | > 10 µM (inactive) |
| OC(Cn1cncn1)(Cn1cncn1)c1ccc(Cl)cc1Cl | > 100 µM (inactive) | > 100 µM (inactive) | > 100 µM (inactive) | > 100 µM (inactive) | > 100 µM (inactive) | > 100 µM (inactive) | > 100 µM (inactive) | > 100 µM (inactive) | > 100 µM (inactive) | > 100 µM (inactive) | – | > 100 µM (inactive) | > 100 µM (inactive) | > 100 µM (inactive) | > 100 µM (inactive) | > 100 µM (inactive) | – |
| COC(=O)C1=CC(=O)[C@@H]2CCCC[C@H]12 | > 100 µM (inactive) | > 100 µM (inactive) | > 100 µM (inactive) | > 100 µM (inactive) | > 100 µM (inactive) | – | – | > 100 µM (inactive) | > 100 µM (inactive) | > 100 µM (inactive) | > 100 µM (inactive) | > 100 µM (inactive) | > 100 µM (inactive) | > 100 µM (inactive) | – | > 100 µM (inactive) | > 100 µM (inactive) |
| CCCCCCCCCCCCC(=O)CCCCC(=O)O | 17.5 µM (inactive) | 20.7 µM (inactive) | 30.3 µM (inactive) | 16.7 µM (inactive) | 20.7 µM (inactive) | 35.2 µM (inactive) | 18.2 µM (inactive) | 31.6 µM (inactive) | 68.2 µM (inactive) | 58.5 µM (inactive) | 54.7 µM (inactive) | 20.6 µM (inactive) | 16.2 µM (inactive) | 34.9 µM (inactive) | 23.4 µM (inactive) | 13.5 µM (inactive) | – |
| O=C1C(=O)N(c2ccc(Cl)c(Cl)c2)C(=O)C(=O)C1c1nc2ccccc2o1 | > 100 µM (inactive) | > 100 µM (inactive) | 56.5 µM (inactive) | 47.2 µM (inactive) | > 100 µM (inactive) | 68.7 µM (inactive) | > 100 µM (inactive) | > 100 µM (inactive) | > 100 µM (inactive) | 95.7 µM (inactive) | 72.9 µM (inactive) | 34.1 µM (inactive) | 36.6 µM (inactive) | – | > 100 µM (inactive) | 22.9 µM (inactive) | > 100 µM (inactive) |
| CCC(C)n1c(C)nc2c1C(=O)c1ccccc1C2=O (stereo not given) | 47.1 µM (inactive) | 75.7 µM (inactive) | 64.7 µM (inactive) | 43.5 µM (inactive) | > 100 µM (inactive) | 33.2 µM (inactive) | – | 30.8 µM (inactive) | > 100 µM (inactive) | 73.1 µM (inactive) | 96.6 µM (inactive) | 31.6 µM (inactive) | 34 µM (inactive) | 26.7 µM (inactive) | 49.8 µM (inactive) | 14.5 µM (inactive) | 60.8 µM (inactive) |
| CNS(=O)(=O)NN(C)S(=O)(=O)c1ccc(Cl)cc1 | > 100 µM (inactive) | – | > 100 µM (inactive) | > 100 µM (inactive) | > 100 µM (inactive) | > 100 µM (inactive) | – | > 100 µM (inactive) | – | > 100 µM (inactive) | > 100 µM (inactive) | > 100 µM (inactive) | > 100 µM (inactive) | > 100 µM (inactive) | > 100 µM (inactive) | > 100 µM (inactive) | > 100 µM (inactive) |
| COc1cc2c(cc1OC)[C@@H](C(O)c1ccccc1)NCC2 (stereo not given in full) | > 100 µM (inactive) | – | > 100 µM (inactive) | > 100 µM (inactive) | > 100 µM (inactive) | > 100 µM (inactive) | > 100 µM (inactive) | > 100 µM (inactive) | > 100 µM (inactive) | > 100 µM (inactive) | > 100 µM (inactive) | > 100 µM (inactive) | > 100 µM (inactive) | > 100 µM (inactive) | > 100 µM (inactive) | > 100 µM (inactive) | > 100 µM (inactive) |
